Measurements from patent publication US10919943B2, “Mutant proteins enabling agrochemical control of plant gene expression” (The Regents of the University of California, priority 2016, dated 2021).
Marks after values point to notes of the source that are not given here.

Columns and labels:
[1] = tested on: 35S::GFP-PYR1*^-MANDI transgenic plants; experiment: Thermography of leaf temperature after chemical treatment; assay type: in vivo, Arabidopsis thaliana; settings: for leaf temperature: T1 plants, 24 hours after application, FIG. 10
Source text: To examine the effects of over-expressing either PYR1*^-MANDI or HAB1* in Arabidopsis thaliana, we made 35S-driven GFP-PYR1*^-MANDI and GFP-HAB1* constructs by cloning the mutant genes into the binary vector pEGAD, and the resultant plasmids were transformed into Agrobacterium tumefaciens. The floral dip method was used to generate T0 transgenic seed for both constructs and the T0 seed was germinated in soil containing glufosinate to select for transgenic T1 plants. The PYR1*^-MANDI T1 plants isolated were grown for ˜5 weeks and then treated with mandipropamid, using comparisons to wild type Columbia plants and a previously constructed 35S::PYR1^MANDI transgenic strain as controls. The treated plants were thermographed 24 hours after chemical applications to examine leaf temperature, which increases after ABA responses are activated, due to reduced transpiration. To examine different mandipropamid concentrations, the plants were first treated with 1 μM mandipropamid and then 3 days later were treated again with 10 μM mandipropamid.
Several T1 transgenic seed were propagated and 3 homozygous single insertion transgenic lines identified by glufosinate segregation patterns in the T3 seedlings. GFP-PYR1*^-MANDI protein levels were established by western blotting using an anti-GFP antibody, as described above and the three lines had similar levels of protein expression.

[2] = Phosphatase activity of recombinant GST-HAB1 proteins (4-methylumbeliferyl phosphate); assay type: biochemical; settings: 1 μg protein, percent control (GST-HAB1); FIG. 7
Source text: (§1) In the presence of ABA, wild type PYR1 binds to HAB1 and docks into its active site, which inhibits its enzymatic activity by blocking access of substrates. To characterize the orthogonal PYR1^! and HAB1^! interaction biochemically, we produced recombinant forms of each protein in E. coli, along with the wild type form, and tested the wild type and orthogonal mutant for their ability to inhibit HAB1 and HAB1^! activities in vitro. We cloned PYR1^! into pET28 to generate 6×-His tagged receptor and cloned HAB1^! into pGEX-4T-1 to create a GST-fusion protein. The previously constructed (S.-Y. Park et al., 2009) wild type 6×-His-PYR1 and GST-HAB1 constructs were used for producing recombinant wild type proteins. The 6×-His-tagged receptors and GST-tagged PP2Cs were expressed and purified as previously described. […] The plates were read using a Victor 2 plate reader (PerkinElmer) (355 nm excitation, 460 nm emission) and assays run in triplicate. The PP2C activity values reported are expressed as percent control values, which were calculated by including the carrier solvent (1% DMSO) and the specific receptor assayed, but no ligand. […]
To characterize HAB1^!-3 and HAB1* in vitro, we cloned them into pGEX-4T-1 to create GST-fusion proteins. […] The PP2C activity values reported are expressed as percent control (GST-HAB1) from triplicate measurements.

[3] = tested on: HAB1; experiment: In vitro PP2C assay, ligand-promoted inhibition of GST-HAB1 by receptor; assay type: biochemical, Arabidopsis; settings: FIG. 9
Source text: as §1, with “described. Briefly, the proteins were expressed in BL21 [DE3]pLysS E. coli host cells at 18° C. overnight. Fusion proteins were purified from sonicated lysates using Ni-NTA agarose (Qiagen, USA) or Pierce™ Glutathione Agarose (Thermo Scientific) according to the manufacturer's instructions. PP2C assays were conducted in 96-well polystyrene flat-bottom microtitre plates (Greiner).” for “described.”
According to our current understanding, in order for ABA signaling to be initiated in vivo, PP2C activity must be inhibited to enable accumulation of active SnRK2 kinases. […] 4-methylumbeliferyl phosphate was added (1 mM final concentration) was added to the reactions after 30 minutes equilibration and plates were read by fluorimetry. The PP2C activity values reported are expressed as percent control values, which was calculated by including the carrier solvent (1% DMSO) and the specific receptor assayed, but no ligand.

## C#CCOc1ccc(CCNC(=O)C(OCC#C)c2ccc(Cl)cc2)cc1OC (stereo not drawn) [mandipropamid]
[1]; 1 μM mandipropamid
  leaf temperature: Neither of the treatments elicited substantial alterations in leaf temperature
[1]; 10 μM mandipropamid (3 days after 1 μM)
  leaf temperature: Neither of the treatments elicited substantial alterations in leaf temperature
[1]; two homozygous lines, 5 μM mandipropamid, FIG. 11
  leaf temperature in comparison to wild type control plants: did not reveal differences in leaf temperature

B1: HAB1*: catalytically inactive orthogonal pentuple HAB1 mutant (protein, listed as Arabidopsis thaliana)
chain: MTPAVAMTLSLAANTMCESSPVEITQLKNVTDAADLLSDSENQSFCNGGTECTMEDVSELEEVGEQDLLKTLSDTRSGSSNVFDEDDVLSVVEDNSAVISEGLLVVDAGSELSLSNTAMEIDNGRVLATAIIVGESSIEQVPTAEVLIAGVNQDTNTSEVVIRLPDENSNHLVKGRSVYELDCIPLWGTVSIQGNASEMEAAFAVSPHFLKLPIKMLMGDHEGMSPSLTHLTGHFFGVYDGHGGHKVADYCRDRLHFALAEEIERIKDELCKRNTGEGRQVQWDKVFTSCFLTVDGEIEGKIGRAVVGSSDKVLEAVADETVGSTAVVALVCSSHIVVSNCGDSRAVLFRGKEAMPLSVDHKPDREDEYARIENAGGKVIQWQGARVFGRLAMSRSIGDRYLKPYVIPEPEVTFMPRSREDECLILASDGLWDVMNNQEVCEIARRRILMWHKKNGAPPLAERGKGIDPACQAAADYLSMLALQKGSKDNISIIVIDLKAQAKFKTRT
[2]
  catalytic activity in vitro: Neither HAB1^!-3 or HAB1* display detectable catalytic activity

B2: PYR1*^-MANDI: PYR1 mutant with 9 mutations, most sensitive to mandipropamid (protein, listed as Arabidopsis thaliana)
chain: MPSELTPEERSELKNSIAEFHTYQLDPGSCSSLHAQRIHAPPELVWSIVRRFDKPQTHRHFIKSCSVEQNFEMRVGCTRDIIVISGLPANTSTERLDILDDERRVTGASIIGGEHRLTNYKGVTTVHRFEKENRIWTVVLESYVVDMPEGNSEDDTRIVVDDVVKLNLQKLATVAEAMARNSGDGSGSQVT
[3]; in response to ABA
  inhibition of HAB1 enzymatic activity: does not inhibit
[3]; in response to mandipropamid, 100 nM receptor, 50 nM GST-HAB1
  inhibition of wild type HAB1 enzymatic activity: does not substantially inhibit
